Measurements reported in US20130190370A1, “Novel Tetrahydronaphalene Antagonists to the Thromboxane A2 (TP) Receptor” (The Trustees of the University of Pennsylvania, priority 2010, published 2013).

Legend:
[1] = Unbound fractions in plasma and brain homogenates by equilibrium dialysis; type: in vitro ADME
Source text: Without wishing to be bound by any particular theory, it is believed that it is possible (although uncommon) for a BBB-permeable compound to have a very low B/P ratio if the fraction of free, unbound drug is much greater in the […]. More specifically, a drug that is freely diffusible across the BBB will at equilibrium have a free drug B/P ratio (B/Pfree)=1, where B/Pfree=B/P×fu(brain))/fu(plasma) (Maurer, et al., 2005, Drug Metab Dispos. 33:175-181; Kalvasset al., 2007, Drug Metab Dispos. 35:660-666) and fti represents unbound drug fractions. […] To ensure that the low B/P ratios obtained with the TP antagonists of Table 1 were truly reflective of poor BBB permeability, the unbound fractions in plasma and brain homogenates were measured using established equilibrium dialysis methods (Maurer, et al., 2005, Drug Metab Dispos. 33:175-181; Kalvasset al., 2007, Drug Metab Dispos. 35:660-666; Friden, et al., 2007, Drug Metab Dispos. 35:1711-1719). […] This is further illustrated by comparing the calculated B/Pfree ratios (Table 1), which are <<1. Because the existing repertoire of TP receptor antagonists share common structural features, including free carboxylate moieties, it is highly unlikely that any of these existing compounds would be sufficiently brain-penetrant to be potential AD therapeutics.

[2] = Brain and plasma compound levels by LC-MS/MS after 5 mg/kg i.p. injection into mice
Description: One-month old B6C3HF1 female mice were given intraperitoneal injections of compounds at 5 mg/kg. 1 hour after injection, mice were lethally anesthetized with an intraperitoneal injection of ketamine hydrochloride (1 mg/10 g) and xylazine (0.1 mg/10 g) and perfused intracardially with PBS in accordance with protocols approved by the University of Pennsylvania.
Brain samples were homogenized in 10 mM ammonium acetate, pH 5.7 (1:2; w/v) using a handheld sonic homogenizer. Compound from 50 μL of brain homogenate or plasma was extracted with 200 μL acetonitrile, centrifuged, and the supernatant removed for LC/MS/MS analysis. Compounds were detected using multiple reaction monitoring (MRM) of their specific collision-induced ion transitions and quantified using peak areas.
The LC/MS/MS system was comprised of an Agility UPLC, a TQ MS, and controlled using MassLynx software (Waters Corporation, Milford, Mass., USA). Samples were separated on an Aquity BEH C18 column (1.7 μm, 2.1×50 mm) at 35° C. For operation in positive electrospray ionization mode, the mobile phase A was 0.1% (v/v) formic acid, and B was either acetonitrile or methanol with 0.1% (v/v) formic acid. For operation in negative electrospray ionization mode, the mobile phase A was 10 mM ammonium acetate, and B was methanol with 10 mM ammonium acetate, Injections of 5 μL were separated at a flow rate of 0.6 mL/min using a gradient from 5% to 95% B over two minutes followed by wash and re-equilibration steps.
The MS was operated with a desolvation temperature of 450° C. and a source temperature of 150° C. Desolvation and source nitrogen gas flows were 900 L/hr and 50 L/hr, respectively. Collision cell argon gas flow was 0.1 mL/min. Source and analyzer voltages were optimized for each compound using the MassLynx auto tune utility. Compound standards at 1000 ng/mL in 50% acetonitrile were infused at 30 μL/min and combined with flow from the UPLC at 0.6 mL/min and 50% B.
Standard curves were generated from spiked brain homogenate and plasma prepared at 4, 40, 400 and 4000 ng/mL and extracted as above. Peak area was plotted versus concentration and a 1/x weighted linear regression curve was used to quantify the unknowns using the average peak area from triplicate injections,
The following experiments were designed to analyze TP receptor antagonists to determine their relative BBB penetration. The TP receptor antagonists were administered via i.p. injection at 5 mg/kg to normal mice, and brain and plasma compound concentrations were assessed by LC-MS/MS at 1 and 4 hours after dosing.
To examine the blood-brain barrier permeability of these compounds, one-month old B6C3F1 mice were injected at 5 mg/kg and sacrificed 1 hour after injection.

mouse TP receptor = target: T1, mouse TP receptor (Mus musculus, UniProt P30987); assay: Radioligand binding assay (3H-SQ29,548), mouse TP receptor; details: mTP receptor
T1 construct: expressed in transfected cells
T1 sequence (P30987 1-341): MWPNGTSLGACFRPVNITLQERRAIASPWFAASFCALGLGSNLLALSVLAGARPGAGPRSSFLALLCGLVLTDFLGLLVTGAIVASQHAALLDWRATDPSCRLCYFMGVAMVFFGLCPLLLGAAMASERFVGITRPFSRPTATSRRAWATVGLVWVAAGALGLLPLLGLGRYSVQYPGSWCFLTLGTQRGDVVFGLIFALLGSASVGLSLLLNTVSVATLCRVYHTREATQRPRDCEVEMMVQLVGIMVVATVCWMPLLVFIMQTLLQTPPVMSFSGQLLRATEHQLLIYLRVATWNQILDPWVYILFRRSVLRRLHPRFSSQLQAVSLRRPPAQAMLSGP
Description: (§1) QBI-HEK 293A cells expressing human or mouse TxA2 (TP) receptor were grown as described previously and harvested in phosphate-buffered saline with 1 mM EDTA. The cell pellet was homogenized in a glass homogenizer in 20 mM Hepes, 1 mM EGTA, 0.5 mM DTT with protease inhibitor cocktail. The homogenate was initially centrifuged at 1000×g for 10 minutes at 8° C. to remove cell debris. The homogenate was then centrifuged in a Beckman L8-70M ultracentrifuge (Beckman-Coulter, Brea, Calif., USA) at 21,000 rpm for 30 minutes at 4° C., and the pellet was resuspended in 20 mM Hepes, 1 mM EGTA, 100 mM NaCl. Membrane preparations were normalized to protein level as determined with a BCA assay (ThermoFisher, Rockland, Ill.) and stored at −80° C.
(§2) Test antagonists were incubated at 10 different concentrations with 25 μg membrane and 25 nM ^3H-SQ29,548 (PerkinElmer, Waltham, Mass., USA) in 50 mM Tris, 4 mM CaCl2, 0.1% ascorbic acid pH 7.5 for 2 hours at 25° C. in 96-well polystyrene plates. Separation of bound from free radioligand was accomplished by rapid vacuum filtration onto 96-well GF/B filter plates (PerkinElmer, Waltham, Mass., USA). Filters were washed 8 times in 50 mM Tris, pH 6.9 and allowed to dry for 16 hours, Plates were sealed and filters dissolved in 50 μL Betaplate Scintillation fluid (PerkinElmer, Waltham, Mass., USA) and read on a scintillation counter. Data are presented as percent total binding as calculated by a minimum of 3 wells containing membrane and ^3H-SQ29,548 without antagonist.
(§3) Equilibrium dissociation constants (Kd), IC50, and Schild regression analyses was performed with GraphPad Prism software (GraphPad Software Inc., La Jolla, Calif., USA).
(§4) To facilitate the characterization of the new compounds, cell-based TP receptor functional assays were optimized. HEK293 clones have been produced that stably express the human (hTP) or mouse (mTP) TP receptor (a isoform), and treatment of these clones with I-BOP ([1S-[1α,2α(Z),3β(1E,3S*),4α]]-7-[3-[3-hydroxy-4-(4-iodophenoxy)-1-butenyl]-7-oxabicyclo[2.2.1]hept-2-yl]-5-heptenoic acid) results in increased production of inositol triphosphate (IP3) (Knezevic, et al., 1993, Blood 82:A156; Shenker, et al., 1991, J Biol Chem 266:9309-9313; Huang, et al., 2004, Cell Signal 16:521-533) which can be quantified by measuring the breakdown product, inositol monophosphates (IP1), using a commercial time-resolved fluorescence assay. […] A radioligand binding assay was also developed to allow for the determination of binding affinities of compounds at the hTP and mTP receptors.

human TP receptor = target: T2, human TP receptor (Homo sapiens, UniProt P21731); assay: Radioligand binding assay (3H-SQ29,548), human TP receptor; details: hTP receptor
T2 construct: expressed in transfected cells
T2 sequence (P21731 1-343): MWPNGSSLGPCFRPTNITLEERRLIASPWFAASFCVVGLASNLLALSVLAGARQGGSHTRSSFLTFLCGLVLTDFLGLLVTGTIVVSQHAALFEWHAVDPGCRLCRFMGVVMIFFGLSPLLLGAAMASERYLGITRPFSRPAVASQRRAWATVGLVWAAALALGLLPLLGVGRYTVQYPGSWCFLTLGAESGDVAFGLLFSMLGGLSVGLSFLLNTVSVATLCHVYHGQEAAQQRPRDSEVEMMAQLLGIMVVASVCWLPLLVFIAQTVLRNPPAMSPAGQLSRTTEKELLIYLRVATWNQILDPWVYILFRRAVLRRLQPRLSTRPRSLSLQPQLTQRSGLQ
Description: as §1, §2, §3, §4

[3] = Pro-drug study: plasma levels of compound and carboxylic acid hydrolysis product (51280) by LC-MS/MS; type: in vivo; details: female mice, 5 mg/kg, 1 h after injection
Description: Ester and amide examples can serve as pro-drugs to release the potent carboxylic acid TP receptor antagonist CNDR-51280. Compounds in were administered at 5 mg/kg to female mice, and levels of the compound and the carboxylic acid hydrolysis product (51280) were evaluated by LC-MS/MS 1 h after injection (Table 3).

[4] = mice, 5 mg/kg i.p., 1 h after dosing
[5] = mice, 5 mg/kg i.p., 4 h after dosing
[6] = female, B6C3HF1, mouse, brain/plasma (unbound), ip, 5 mg/kg
[7] = female, B6C3HF1, mouse, brain/plasma, ip, 5 mg/kg

CCCCCNC(=O)NS(=O)(=O)c1cc([N+](=O)[O-])ccc1NC1CCCCC1 [BM567]
fu(plasma) (fraction unbound) ([1]; plasma, equilibrium dialysis): 0.004 +/− 0.001
fu(pl)/fu(br) ([1]; ratio of unbound fractions plasma/brain): 0.20
B/P (brain-to-plasma ratio) ([2]; mice, 5 mg/kg i.p., 1 h): 0.01
Brain [2, 4]: 40.2 ± 12.3 ng/mL
Plasma [2, 4]: 3600 ± 923 ng/mL
B/P (brain-to-plasma ratio) ([2]; mice, 5 mg/kg i.p., 4 h): 0.01
Brain [2, 5]: 18.5 ± 7.8 ng/mL
Plasma [2, 5]: 2248 ± 1400 ng/mL

O=S(=O)(NC1CCc2c(CCc3nn[nH]n3)cccc2C1)c1ccc(Cl)cc1 (centres unmarked) [Compound 51279, N-(5-(2-(2H-Tetrazol-5-yl)ethyl)-1,2,3,4-tetrahydronaphthalen-2-yl)-4-chlorobenzenesulfonamide]
brain penetration / brain levels of the drug ([2]; B6C3F1 mice, 5 mg/kg, 1 hour after injection): very little brain penetration
affinity for TP receptor (mouse TP receptor): most tolerable substitutions
affinity for TP receptor (mouse TP receptor; listed as CNDR-51279): well tolerated
affinity for TP receptor (human TP receptor): most tolerable substitutions
affinity for TP receptor (human TP receptor; listed as CNDR-51279): well tolerated

O=S(=O)(NC1CCc2c(CCC3OCCO3)cccc2C1)c1ccc(Cl)cc1 (centres unmarked) [Compound 51414]
brain penetration / brain levels of the drug ([2]; B6C3F1 mice, 5 mg/kg, 1 hour after injection; 5 mg/kg): greatly increased brain levels of the drug
brain penetration / brain levels of the drug ([2]; B6C3F1 mice, 5 mg/kg, 1 hour after injection; listed as CNDR-51414, 5 mg/kg): brain-penetrant

O=C(CCc1cccc2c1CCC(NS(=O)(=O)c1ccc(Cl)cc1)C2)NCC(F)(F)F (centres unmarked) [Compound 51418, 3-(6-(4-Chlorophenylsullfonamido)-5,6,7,8-tetrahydronaphthalen-1-yl)-N-(2,2,2-trifluoroethyl)-propanamide]
Plasma (compound) [3]: 109 (+/− 45) nM
XCOOH Plasma (carboxylic acid hydrolysis product 51280) [3]: 100 (+/− 43) nM
affinity for TP receptor (mouse TP receptor): most tolerable substitutions
affinity for TP receptor (human TP receptor): most tolerable substitutions

O=C(O)Cc1ccc(CCNS(=O)(=O)c2ccc(Cl)cc2)cc1 [Daltroban]
fraction unbound ([1]; brain homogenate, equilibrium dialysis, read-out: fu(brain) (fraction unbound)): 0.221
plasma/brain unbound fraction ratio ([1]; plasma and brain homogenate, ratio of unbound fractions plasma/brain, read-out: fu(pl)/fu(br)): 0.52
concentration at 1 h ([2]; female, B6C3HF1, mouse, brain, ip, 5 mg/kg, Brain, mice, 5 mg/kg i.p., 1 h after dosing): 133 ng/mL
concentration at 4 h ([2]; female, B6C3HF1, mouse, brain, ip, 5 mg/kg, Brain, mice, 5 mg/kg i.p., 4 h after dosing): 55.9 ng/mL
Kp at 1 h [2, 6]: 0.04
Kp at 4 h [2, 6]: 0.06
Kp at 1 h [2, 7]: 0.02
Kp at 4 h [2, 7]: 0.03
concentration at 1 h ([2]; female, B6C3HF1, mouse, plasma, ip, 5 mg/kg, Plasma, mice, 5 mg/kg i.p., 1 h after dosing): 6450 ng/mL
concentration at 4 h ([2]; female, B6C3HF1, mouse, plasma, ip, 5 mg/kg, Plasma, mice, 5 mg/kg i.p., 4 h after dosing): 1790 ng/mL
